Experimental data taken from ChEMBL document CHEMBL1201862, “PubChem BioAssay data set” (2004).
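In this assay, cells in 96-well plates receive the compound at five concentrations for 48 hours. Endpoints are linearly interpolated between the surrounding concentrations. GI50 is the concentration that inhibits growth by half.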 Active and inactive are the calls of the source. Cut-off read from the data, not from the text of the source: active = GI50 up to about 1.1 µM and inactive = higher.

How the values were obtained:
Assay in all cases: NCI tumour cell line growth inhibition, 48 h
[1] = tested on: HOP-92
[2] = tested on: U-251
[3] = tested on: UACC-257
[4] = tested on: EKVX
[5] = tested on: SF-539
[6] = tested on: HCC 2998
[7] = tested on: K562
[8] = tested on: MOLT-4
[9] = tested on: PC-3
[10] = tested on: SR
[11] = tested on: UACC-62
[12] = tested on: 786-0
[13] = tested on: HL-60
[14] = tested on: SK-MEL-5
[15] = tested on: Malme-3M
[16] = tested on: RXF 393
[17] = tested on: UO-31
[18] = tested on: DU-145
[19] = tested on: CAKI-1
[20] = tested on: SW-620

SMILES | GI50 [1] | GI50 [2] | GI50 [3] | GI50 [4] | GI50 [5] | GI50 [6] | GI50 [7] | GI50 [8] | GI50 [9] | GI50 [10] | GI50 [11] | GI50 [12] | GI50 [13] | GI50 [14] | GI50 [15] | GI50 [16] | GI50 [17] | GI50 [18] | GI50 [19] | GI50 [20]
COc1cc(/C=C(\C#N)c2nc3ccccc3o2)ccc1O | 14.1 µM (inactive) | 12.3 µM (inactive) | 23.5 µM (inactive) | 21.6 µM (inactive) | 12 µM (inactive) | 20.9 µM (inactive) | 35.4 µM (inactive) | 28.5 µM (inactive) | 21.2 µM (inactive) | 24.2 µM (inactive) | 18.6 µM (inactive) | 24.9 µM (inactive) | 19.6 µM (inactive) | 12.6 µM (inactive) | 19.8 µM (inactive) | 39.5 µM (inactive) | 25.5 µM (inactive) | 25.6 µM (inactive) | 17.3 µM (inactive) | –
C/C(=N\NC(=S)N(C)CCN(C)C(=S)N/N=C(\C)c1ccccn1)c1ccccn1 | 2.72 µM (inactive) | 0.745 µM (active) | 0.774 µM (active) | 1.73 µM (inactive) | 1.66 µM (inactive) | 10.4 µM (inactive) | 1.55 µM (inactive) | 0.479 µM (active) | 0.553 µM (active) | 0.697 µM (active) | 2.31 µM (inactive) | > 100 µM (inactive) | 0.365 µM (active) | 0.431 µM (active) | 0.826 µM (active) | 0.0843 µM (active) | 0.791 µM (active) | 1.11 µM (active) | 1.78 µM (inactive) | 0.662 µM (active)
NC12Oc3cc(O)cc(O)c3C1(c1ccc(Cl)cc1)c1c(O)cc(O)cc1O2 (centres undefined) | 25.9 µM (inactive) | 65.8 µM (inactive) | 79.1 µM (inactive) | 71.8 µM (inactive) | 42.8 µM (inactive) | > 100 µM (inactive) | 30.8 µM (inactive) | 27.9 µM (inactive) | 43 µM (inactive) | 22.5 µM (inactive) | 42 µM (inactive) | 61.8 µM (inactive) | 27.4 µM (inactive) | 37.5 µM (inactive) | 40.6 µM (inactive) | 32.3 µM (inactive) | 92.5 µM (inactive) | > 100 µM (inactive) | > 100 µM (inactive) | > 100 µM (inactive)
Cc1ccc(CN2CCN(Cc3ccc(C)o3)C(C)C2)o1 (centres undefined) | > 100 µM (inactive) | > 100 µM (inactive) | > 100 µM (inactive) | > 100 µM (inactive) | > 100 µM (inactive) | > 100 µM (inactive) | > 100 µM (inactive) | > 100 µM (inactive) | > 100 µM (inactive) | > 100 µM (inactive) | > 100 µM (inactive) | > 100 µM (inactive) | > 100 µM (inactive) | > 100 µM (inactive) | > 100 µM (inactive) | > 100 µM (inactive) | > 100 µM (inactive) | > 100 µM (inactive) | > 100 µM (inactive) | > 100 µM (inactive)
O=c1[nH]c(=S)[nH]n1C(=S)n1[nH]c(=S)[nH]c1=O | > 100 µM (inactive) | > 100 µM (inactive) | > 100 µM (inactive) | > 100 µM (inactive) | > 100 µM (inactive) | > 100 µM (inactive) | > 100 µM (inactive) | > 100 µM (inactive) | > 100 µM (inactive) | 41.4 µM (inactive) | > 100 µM (inactive) | > 100 µM (inactive) | 45.2 µM (inactive) | > 100 µM (inactive) | 36.7 µM (inactive) | > 100 µM (inactive) | > 100 µM (inactive) | > 100 µM (inactive) | > 100 µM (inactive) | > 100 µM (inactive)
COc1cc([N+](=O)[O-])ccc1NC1=CC(=O)CCC1 | > 100 µM (inactive) | > 100 µM (inactive) | > 100 µM (inactive) | > 100 µM (inactive) | > 100 µM (inactive) | > 100 µM (inactive) | > 100 µM (inactive) | > 100 µM (inactive) | > 100 µM (inactive) | > 100 µM (inactive) | > 100 µM (inactive) | > 100 µM (inactive) | > 100 µM (inactive) | > 100 µM (inactive) | > 100 µM (inactive) | > 100 µM (inactive) | > 100 µM (inactive) | > 100 µM (inactive) | 49.5 µM (inactive) | > 100 µM (inactive)
COc1c(C(=O)/C(=N/Nc2cccc(Cl)c2)C(C)=O)c(O)c(OC)c2occc12 | 67.1 µM (inactive) | > 100 µM (inactive) | > 100 µM (inactive) | 78.7 µM (inactive) | > 100 µM (inactive) | 31.5 µM (inactive) | > 100 µM (inactive) | 39.5 µM (inactive) | 53.5 µM (inactive) | > 100 µM (inactive) | > 100 µM (inactive) | > 100 µM (inactive) | > 100 µM (inactive) | > 100 µM (inactive) | 60.1 µM (inactive) | 34.6 µM (inactive) | 37.2 µM (inactive) | > 100 µM (inactive) | > 100 µM (inactive) | 76.4 µM (inactive)
